We go through two compounds from US10624948B2, “Use of cell-permeable peptide inhibitors of the JNK signal transduction pathway for the treatment of various diseases” (Xigen Inflammation Ltd., priority 2013, dated 2020).

The test system of data set [1] is Sprague-Dawley rats, STZ diabetic nephropathy. Put plainly: Rat model of diabetic nephropathy (STZ, high fat diet). The format is in vivo. To be noted: Losartan 25 mg/kg po daily. As to the method:
Losartan has been used as a positive control. Seventy-four male Sprague-Dawley rats (200-250 g; including 4 spare animals) from Charles River (Margate, Kent) were used. Rats were housed in pairs in polypropylene cages with free access to a high fat diet (D12492 60% of kcal derived from fat) and tap water at all times. The diet has been purchased from Research Diets, New Jersey, USA. All animals have been maintained at 21±4° C. and 55±20% humidity on a normal light (lights on: 07:00-19:00). […] About 40 animals have been assigned to Cohort A and the remaining 30 to Cohort B, balanced as far as possible for body weight, plasma glucose and food and water intake. […] In all groups, food and water intake have been determined twice weekly (on the day of iv dosing and on water refill days. Blood glucose has been determined monthly. Samples were collected as detailed previously by glucometer (One Touch Ultra2). Blood samples have been taken in the freely fed state (beginning at approx. 09:00). Animals have been dosed immediately afterwards by the respective route to a timed schedule. Subsequent to dosing, each animal has been placed in a metabolism cage with free access to food and water for a 24 h period. To reduce evaporation, the glass urine collectors have been placed in a polystyrene container (Sca-online, UK) which was filled with ice. […] Food consumed and water drunk has also been calculated. […]

Data set [2] is described as follows: Phase II trial, safety and tolerability (adverse events). As to the method:
The criteria for evaluation of safety were:
An AE is therefore any unfavorable and unintended sign, symptom or disease temporally associated with the use of a medicinal product, whether or not considered related to the medicinal product.
Patients were analyzed as treated, i.e. according to the treatment which they received. The safety set was the primary analysis set for the safety analysis.
The present study was a double-blind study. All patients who were randomized and for whom the sub-conjunctival injection was started are included in the safety analysis by dose group. […] If the study treatment eye drops were stopped prematurely (i.e. before day 21), the patients concerned continued follow-up until day 28, in accordance with the study protocol.
Investigators assessed (in a blinded manner) the relationship of each reported AE to any of the study treatments. An event was considered to be related to study treatment if the Investigator ticked either ‘possible’ or ‘probable’ as the reply to this question.

The subject of data set [3] is post-operative intraocular inflammation. To be noted: Dexamethasone (N = 50).
Description: The objectives of the SDD-1002-035 study were to evaluate the efficacy and safety of a single sub-conjunctival injection of XG-102 90 or 900 μg administered within maximally 3 hours after the end of the surgical procedure compared to dexamethasone eye drops administered 4 times/day for 21 days in post-operative intraocular inflammation.
In accordance with this trial's primary objective, the primary outcome was evaluated by the mean anterior chamber cells grade at day 28 post-administration of the sub-conjunctival injection of study treatment comparing XG-102 900 μg with dexamethasone eye drops.
The present trial was a randomized (1:1:1), controlled, double-blind, multicenter non-inferiority clinical trial with three parallel groups of equal size. Randomization, which was blocked by center, was performed using a web-based, secure, randomization system. […]
The primary objective was evaluated by the mean anterior chamber cells grade at day 28 post-administration of the sub-conjunctival administration of study treatment. […]

In the case of `CCCCc1nc(Cl)c(CO)n1Cc1ccc(-c2ccccc2-c2nn[nH]n2)cc1` [Losartan], the body weight entry in data set [1] is on record as “significantly lower”.
For `C[C@@H]1C[C@H]2[C@@H]3CCC4=CC(=O)C=C[C@]4(C)[C@@]3(F)[C@@H](O)C[C@]2(C)[C@@]1(O)C(=O)CO` [dexamethasone, reference compound], in data set [2] (Dexamethasone dose group), the “Adverse events which led to an interruption of study treatment” value is given as 3 (5.5%) number of events (%). The “patients with Intraocular pressure increased” value in data set [2] (dexamethasone) is 14%. The “percentage of patients who experienced an AE within 24 hours” value in data set [2] (dexamethasone group) came to 30%. The “Premature withdrawal of study tx eye drops, # patients (%)” value in data set [3] was 3 (6.0%).
